This note sets out measurements from patent US20230111853A1, “COMPOUNDS MODULATING PROTEIN RECRUITMENT AND/OR DEGRADATION” (Orionis Biosciences, Inc., priority 2019, published 2023).

Like-named read-outs stand apart in the source and are kept apart here.

Assay [1] relates to IKZF1, ASS1 and SALL4 recruitment to CRBN. As to the kind of experiment: Recruitment assessment: recruitment of any tested substrate from among IKZF1, ASS1 and SALL4. The format is cell-based. As to conditions: any tested substrate at any tested compound concentration.
The target of assay [2] is T1, SALL4 recruitment to CRBN (Homo sapiens, UniProt Q96SW2).
T1 construct: Full size proteins were fused for each of the target proteins tested, except in the case of IKZF1 where isoform 7 was used; expressed in transfected cells; host or cells: HEK293T
As to the kind of experiment: Recruitment Assay (MAPPIT-like): SALL4 recruitment to CRBN. The format is cell-based. As to conditions: HEK293T cells; pSEL-SALL4+pMG1-CRBN; luciferase 24 hours after treatment; read-out: EC50_SALL4. How it is done:
In this experimental set-up, cells were transfected with a construct encoding a CRBN-fusion protein and another one encoding a substrate-fusion protein. Test compound activity was assessed with increasing concentrations of test compounds (dose-response studies) to monitor the ability to promote CRBN-ligand-induced protein interaction.
Full size proteins were fused for each of the target proteins tested, except in the case of IKZF1 where isoform 7 was used. For the study, the following were used: IKZF1 recruitment: pSEL-CRBN+pMG1-IKZF1(isoform 7); ASS1 recruitment: pSEL-CRBN+pMG1-ASS1. SALL4 recruitment: pSEL-SALL4+pMG1-CRBN. […] Luciferase activity was measured 24 hours after test compound treatment using the Luciferase Assay System kit (PROMEGA, Madison, Wis.) with an Ensight plate reader (PERKIN ELMER LIFE SCIENCES, Waltham, Mass.). Data points depicted fold induction of the average luciferase activity of triplicate samples from EPO+test compound treated cells versus EPO only treated cells. Error bars represent standard deviations. Curves were fit using 4-parameter nonlinear regression in […] PRISM software.

The target in another assay is CRBN (Homo sapiens, UniProt Q96SW2). As to the kind of experiment: Competition Assay (MAPPIT-like, competition with trimethoprim-lenalidomide hybrid ligand for binding to CRBN in cells).
Where [3] appears, read: read-out: IC50 Competition, HEK293T cells, competition with 300 nM trimethoprim-lenalidomide hybrid ligand, luciferase 24 hours after compound treatment.

As for `O=C1CCC(n2nnc3ccccc3c2=O)C(=O)N1` (centres unmarked) [C21223, 3-(4-oxo-1,2,3-benzotriazin-3-yl)piperidine-2,6-dione], the “Recruitment Assessment” value in assay [1] is listed as “TRUE”. Moreover, in assay [2], the EC50 amounted to 0.517 µM. In addition, the IC50 at CRBN is 2.24 µM.

For the molecule `O=C1CC/C(=C/c2ccccc2)C(=O)N1` [C68121, (3Z)-3-benzylidenepiperidine-2,6-dione], the “Recruitment Assessment” value in assay [1] is given as “FALSE”. In addition, on CRBN (setting [3]), the IC50 stood at 6.5 µM.

With `Cc1ccc2c(c1)C(=O)N(c1c(C(C)C)cccc1C(C)C)C2=O` [5HPP-33, 2-(2,6-diisopropylphenyl)-5-methyl-isoindoline-1,3-dione, reference compound], the “Recruitment Assessment” value in assay [1] is “FALSE”. Also, the IC50 at CRBN (setting [3]) was 5.11 µM.

In the case of `O=C1CCC(Nc2ncc3ccccc3n2)C(=O)N1` (centres unmarked) [C97402, 3-(quinazolin-2-ylamino)piperidine-2,6-dione], the “Recruitment Assessment” value in assay [1] is listed as “FALSE”. Also, the IC50 at CRBN (setting [3]) turned out to be 6.32 µM.

With `O=C1CCC(N2C(=O)C3CCCCC3C2=O)C(=O)N1` (centres unmarked) [C24191, 2-(2,6-dioxo-3-piperidyl)-3a,4,5,6,7,7a-hexahydroisoindole-1,3-dione], the “Recruitment Assessment” value in assay [1] was “FALSE”. Also, the IC50 on CRBN (setting [3]) was found to be 17.7 µM.
